Experimental data reported in article PMC3325260, “Label-Free Phenotypic Profiling Identified D-Luciferin as a GPR35 Agonist” (PLoS ONE, 2012).
Like-named read-outs stand apart in the source and are kept apart here.

Legend:
[1] = tested on: purified luciferase enzyme; conditions: binding to purified luciferase enzyme; cited from earlier work
[2] = target: T1, human GPR35 in Tango GPR35-bla U2OS cells (Homo sapiens, UniProt Q9HC97); experiment: cell-based; conditions: read-out: maximal response relative to the zaprinast maximal response
[3] = target: T2, endogenous GPR35 in HT-29 cells (Homo sapiens, UniProt Q9HC97); experiment: cell-based
Procedure: (§1) All DMR assays were performed using Epic® system (Corning Inc.). Epic® is a wavelength interrogation reader system tailored for resonant waveguide grating biosensors in microtiter plates. This system consists of a temperature-control unit (26°C), an optical detection unit, and an on-board liquid handling unit with robotics. The detection unit is centered on integrated fiber optics, and enables kinetic measures of cellular responses with a time interval of ∼15 sec. Cells were directly seeded in Epic® plates and cultured overnight to form confluent monolayer in the cell culture medium. The cell seeding density was 32, 000 cells per well, unless specifically mentioned. After being washed twice, the cells were maintained with HBSS (1× Hanks balanced salte buffer, 10 mM Hepes-KOH, pH 7.1) and further incubated inside the system for 1 hr. […] The assay vehicle containing equal amount of DMSO (dimethyl sulfoxide) was used as a control. All ligand-induced DMR were background corrected.

[4] = tested on: ERK1/2 phosphorylation in HT-29 cells; experiment: ERK phosphorylation, Western blot; assay type: cell-based, human; conditions: for effect on the D-luciferin-induced ERK phosphorylation: 5 min after 32 µM D-luciferin, antagonist at different doses
Excerpt: Since ligand-directed functional selectivity or biased agonism is quite common to many, if not all, GPCRs, we next examined the activity of D-luciferin using ERK phosphorylation, receptor internalization and Tango β-arrestin translocation assays. ERK phosphorylation is a hallmark of the activation and signaling of many GPCRs including GPR35 [20].
The phosphorylated ERK and total ERK were blotted, and actin was used as control. Representative images obtained from 2 independent measurements were used.
The p44/42 MAP kinases were examined using Western blotting. Whole cell lysates were collected after the cells were treated with a compound or DMSO for 1 hr. Equivalent gel loading was confirmed by probing with anti-actin body. The total ERK1/2 and phosphorylated ERK1/2 were blotted using respective antibodies.

[5] = target: T2, endogenous GPR35 in HT-29 cells; experiment: DMR agonist assay in native HT-29 cells; assay type: cell-based; design: endogenous in cells; host or cells: HT-29; conditions: for maximal P-DMR amplitude: HT-29 cells, picometer shift of resonant wavelength, n = 36; for DMR response of the compound alone: HT-29, up to 64 µM
Excerpt: First, multiple DMR assays were employed to characterize the pharmacology of D-luciferin in HT-29 cells, a native cell line endogenously expressing GPR35 [18]. […] Second, D-luciferin-induced internalization of endogenous GPR35 in HT-29 cells was examined. Third, D-luciferin-induced ERK phosphorylation in the absence and presence of GPR35 antagonists was examined in HT-29 cells. Fourth, Tango β-arrestin translocation assay was finally employed to examine the agonism of D-luciferin to cause β-arrestin translocation in an engineered cell line.
as §1

[6] = target: T2, endogenous GPR35 in HT-29 cells
Procedure: All data represent mean ± s.d. from 2 independent measurements, each in duplicate (n = 4).
as §1

[7] = target: T1, human GPR35 in Tango GPR35-bla U2OS cells
[8] = target: T2, endogenous GPR35 in HT-29 cells; conditions: 32 µM, 1 hr
Excerpt: Representative images obtained from 2 independent measurements were used.

[9] = target: T2, endogenous GPR35 in HT-29 cells; experiment: DMR antagonist assay (antagonist pre-treatment, then agonist); assay type: cell-based; design: endogenous in cells; host or cells: HT-29; conditions: for IC50: 5 min pre-stimulation with antagonist, then D-luciferin at 32 µM, n = 4, read-out: apparent IC50 of blocking the DMR induced by D-luciferin
Procedure: as §1, with “Epic®” for “All DMR assays were performed using Epic® system (Corning Inc.). Epic®”

[10] = target: T2, endogenous GPR35 in HT-29 cells; design: endogenous in cells; host or cells: HT-29; method as in PMID 21950657; conditions: up to 64 µM; cited from earlier work
[11] = target: T2, endogenous GPR35 in HT-29 cells; design: endogenous in cells; host or cells: HT-29; method as in PMID 21950657; conditions: cited from earlier work

T1 sequence (Q9HC97 whole entry): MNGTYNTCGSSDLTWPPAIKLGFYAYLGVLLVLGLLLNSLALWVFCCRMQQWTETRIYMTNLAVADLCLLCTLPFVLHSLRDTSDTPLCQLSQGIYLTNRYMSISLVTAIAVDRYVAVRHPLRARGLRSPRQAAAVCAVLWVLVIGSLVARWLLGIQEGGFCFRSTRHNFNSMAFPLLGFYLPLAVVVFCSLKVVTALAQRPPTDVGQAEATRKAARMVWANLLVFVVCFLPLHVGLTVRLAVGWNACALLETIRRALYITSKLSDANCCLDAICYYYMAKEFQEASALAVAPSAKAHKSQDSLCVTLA
T2 sequence (Q9HC97 whole entry): as above

O=C(O)[C@H]1CSC(c2nc3ccc(O)cc3s2)=N1 [D-luciferin, (S)-2-(6′-hydroxy-2′-benzothiazolyl)thiazoline-4-carboxylic acid]
Km [1]: 16 µM
Emax [2]: 20%
IC50 [3]: 6.8 ± 0.7 µM
time of maximum ERK phosphorylation after stimulation ([4]; 32 µM D-luciferin): 2 min
ERK phosphorylation ([4]; 32 µM D-luciferin for different times): led to phosphorylation of ERK in a time-dependent manner
maximal P-DMR amplitude [5]: 198±12 pm
effect on the potency of pamoic acid in DMR co-stimulation ([6]; D-luciferin at different fixed doses, up to 50 µM): did not alter the potency
effect on DMR of pamoic acid at 200 nM (saturating concentration) ([6]; high doses of D-luciferin): reduced the DMR in a dose-dependent manner
effect on the maximal response of zaprinast, Tango co-stimulation ([7]; 100 µM D-luciferin): only slightly suppressed
effect on the maximal response of zaprinast, Tango co-stimulation ([7]; 1 mM D-luciferin): suppressed the maximal response
effect on the potency of zaprinast, Tango co-stimulation ([7]; D-luciferin at 100 µM and 1 mM): little impact
internalization of endogenous GPR35 [8]: remarked internalization

CC(/C=C1\SC(=S)N(CCCC(=O)Nc2ccc(C(=O)O)c(O)c2)C1=O)=C\c1ccccc1 [ML145]
effect on the D-luciferin-induced ERK phosphorylation [4]: dose-dependently attenuated

COC(=O)c1cnn(-c2ccc(F)cc2F)c1/C=N/NC(N)=S [SPB05140]
IC50 [9]: 5 ± 0.9 µM
DMR response of the compound alone [5]: little response

COC(=O)c1cnn(-c2ccc(F)cc2F)c1C=NNC(=S)NC(C)(C)C [SPB05142, methyl-5-[(tert-butylcarbamothioylhydrazinylidene)-methyl]-1-(2,4-difluorophenyl)-pyrazole-4-carboxylate]
IC50 [9]: 1.5 ± 0.2 µM
D-luciferin DMR in presence of antagonist at the two highest doses ([9]; SPB05142 at 16 and 32 µM, D-luciferin 32 µM): small but detectable negative DMR signal
ERK phosphorylation by compound alone ([4]; 25 µM): weak but detectable ERK phosphorylation
effect on the D-luciferin-induced ERK phosphorylation [4]: dose-dependently attenuated
DMR response of the compound alone [10]: did not lead to any detectable DMR
blockade of the DMR induced by zaprinast [11]: almost completely blocked

COC(=O)c1cnn(-c2ccc(F)cc2F)c1/C=N/NC(=S)Nc1ccccc1 [SPB05143]
IC50 [9]: 2.6 ± 0.3 µM
DMR response of the compound alone [5]: little response

Cc1c(C(=O)O)sc2c(Br)csc12 [YE210]
ERK phosphorylation ([4]; 1 µM, 30 min after treatment): led to ERK phosphorylation

O=C(O)c1cc2ccccc2c(Cc2c(O)c(C(=O)O)cc3ccccc23)c1O [pamoic acid]
ERK phosphorylation ([4]; 1 µM, 30 min after treatment): much lower ERK phosphorylation

CCCOc1ccccc1-c1nc2nn[nH]c2c(=O)[nH]1 [zaprinast]
ERK phosphorylation ([4]; 1 µM, 30 min after treatment): led to ERK phosphorylation
maximal P-DMR amplitude [5]: 276±17 pm
